Measurements as given in PubChem BioAssay AID1259407 (Chemical Carcinogenesis Research Information System (CCRIS), 2018).
Active and inactive are the calls of the source. How the calls were made is not given here.

System: CCRIS mutagenicity, Ames/micronucleus/aberration tests
Assay: CCRIS mutagenicity studies
[1] = Test System: AMES SALMONELLA TYPHIMURIUM, Strain/Indicator: TA98, Metabolic Activation: NONE, Method: STANDARD PLATE
[2] = Test System: AMES SALMONELLA TYPHIMURIUM, Strain/Indicator: TA100, Metabolic Activation: NONE, Method: STANDARD PLATE
[3] = Test System: AMES SALMONELLA TYPHIMURIUM, Strain/Indicator: TA98, Metabolic Activation: NONE, Method: PREINCUBATION
[4] = Test System: AMES SALMONELLA TYPHIMURIUM, Strain/Indicator: TA100, Metabolic Activation: NONE, Method: PREINCUBATION
[5] = Test System: AMES SALMONELLA TYPHIMURIUM, Strain/Indicator: TA102, Metabolic Activation: NONE, Method: PREINCUBATION
[6] = Test System: AMES SALMONELLA TYPHIMURIUM, Strain/Indicator: TA1535, Metabolic Activation: NONE, Method: PREINCUBATION
[7] = Test System: AMES SALMONELLA TYPHIMURIUM, Strain/Indicator: TA1537, Metabolic Activation: NONE, Method: PREINCUBATION
[8] = Test System: AMES SALMONELLA TYPHIMURIUM, Strain/Indicator: TA98, Metabolic Activation: RAT, LIVER, S-9, AROCLOR 1254, Method: PREINCUBATION
[9] = Test System: AMES SALMONELLA TYPHIMURIUM, Strain/Indicator: TA98, Metabolic Activation: RAT, LIVER, S-9, AROCLOR 1254, Method: STANDARD PLATE
[10] = Test System: AMES SALMONELLA TYPHIMURIUM, Strain/Indicator: TA100, Metabolic Activation: RAT, LIVER, S-9, AROCLOR 1254, Method: PREINCUBATION
[11] = Test System: AMES SALMONELLA TYPHIMURIUM, Strain/Indicator: TA100, Metabolic Activation: RAT, LIVER, S-9, AROCLOR 1254, Method: STANDARD PLATE

Q: How did the mutagenic call [1] turn out when `CCCCNc1snc2ccccc12` was run?
A: The mutagenic call was “inactive; negative”.

Q: And the mutagenic call (Test System: AMES SALMONELLA TYPHIMURIUM, Strain/Indicator: TA98, Metabolic Activation: S-9, Method: STANDARD PLATE)?
A: The mutagenic call was “inactive; negative”.

Q: And the mutagenic call [2]?
A: Its mutagenic call is “inactive; negative”.

Q: And the mutagenic call (Test System: AMES SALMONELLA TYPHIMURIUM, Strain/Indicator: TA100, Metabolic Activation: S-9, Method: STANDARD PLATE)?
A: The mutagenic call was “inactive; negative”.

Q: And the mutagenic call (Test System: AMES SALMONELLA TYPHIMURIUM, Strain/Indicator: TA1535, Metabolic Activation: NONE, Method: STANDARD PLATE)?
A: Its mutagenic call is “inactive; negative”.

Q: And the mutagenic call (Test System: AMES SALMONELLA TYPHIMURIUM, Strain/Indicator: TA1535, Metabolic Activation: S-9, Method: STANDARD PLATE)?
A: The mutagenic call was “inactive; negative”.

Q: What about the mutagenic call (Test System: AMES SALMONELLA TYPHIMURIUM, Strain/Indicator: TA1537, Metabolic Activation: NONE, Method: STANDARD PLATE) of the same compound?
A: The mutagenic call was “inactive; negative”.

Q: And the mutagenic call (Test System: AMES SALMONELLA TYPHIMURIUM, Strain/Indicator: TA1537, Metabolic Activation: S-9, Method: STANDARD PLATE)?
A: The mutagenic call was “inactive; negative”.

Q: For `C=C1CC(=O)O1`, which mutagenic call [3] is on record?
A: The mutagenic call was “inactive; negative”.

Q: What about the mutagenic call (Test System: AMES SALMONELLA TYPHIMURIUM, Strain/Indicator: TA98, Metabolic Activation: RAT LIVER S-9, PHENOBARBITAL AND BETA-NAPHTHOFLAVONE, Method: PREINCUBATION) of the same compound?
A: The mutagenic call was “inactive; negative”.

Q: What about the mutagenic call [4] of the same compound?
A: The mutagenic call was “inactive; negative”.

Q: And the mutagenic call (Test System: AMES SALMONELLA TYPHIMURIUM, Strain/Indicator: TA100, Metabolic Activation: RAT LIVER S-9, PHENOBARBITAL AND BETA-NAPHTHOFLAVONE, Method: PREINCUBATION)?
A: The mutagenic call was “inactive; negative”.

Q: What about the mutagenic call [5] of the same compound?
A: Its mutagenic call is “inactive; negative”.

Q: And the mutagenic call (Test System: AMES SALMONELLA TYPHIMURIUM, Strain/Indicator: TA102, Metabolic Activation: RAT LIVER S-9, PHENOBARBITAL AND BETA-NAPHTHOFLAVONE, Method: PREINCUBATION)?
A: The mutagenic call was “inactive; negative”.

Q: What about the mutagenic call (Test System: AMES SALMONELLA TYPHIMURIUM, Strain/Indicator: TA104, Metabolic Activation: NONE, Method: PREINCUBATION) of the same compound?
A: The mutagenic call was “inactive; negative”.

Q: What about the mutagenic call (Test System: AMES SALMONELLA TYPHIMURIUM, Strain/Indicator: TA104, Metabolic Activation: RAT LIVER S-9, PHENOBARBITAL AND BETA-NAPHTHOFLAVONE, Method: PREINCUBATION) of the same compound?
A: The mutagenic call was “inactive; negative”.

Q: What about the mutagenic call [6] of the same compound?
A: Its mutagenic call is “inactive; negative”.

Q: And the mutagenic call (Test System: AMES SALMONELLA TYPHIMURIUM, Strain/Indicator: TA1535, Metabolic Activation: RAT LIVER S-9, PHENOBARBITAL AND BETA-NAPHTHOFLAVONE, Method: PREINCUBATION)?
A: The mutagenic call was “inactive; negative”.

Q: What about the mutagenic call [7] of the same compound?
A: The mutagenic call was “inactive; negative”.

Q: What about the mutagenic call (Test System: AMES SALMONELLA TYPHIMURIUM, Strain/Indicator: TA1537, Metabolic Activation: RAT LIVER S-9, PHENOBARBITAL AND BETA-NAPHTHOFLAVONE, Method: PREINCUBATION) of the same compound?
A: The mutagenic call was “inactive; negative”.

Q: And the mutagenic call (Test System: E.COLI, Strain/Indicator: WP2UVRA/PKM101, Metabolic Activation: NONE, Method: PREINCUBATION)?
A: Its mutagenic call is “inactive; negative”.

Q: What about the mutagenic call (Test System: E.COLI, Strain/Indicator: WP2UVRA/PKM101, Metabolic Activation: RAT LIVER S-9, PHENOBARBITAL AND BETA-NAPHTHOFLAVONE, Method: PREINCUBATION) of the same compound?
A: The mutagenic call was “inactive; negative”.

Q: What about the mutagenic call (Test System: E.COLI, Strain/Indicator: WP2UVRA, Metabolic Activation: NONE, Method: PREINCUBATION) of the same compound?
A: The mutagenic call was “inactive; negative”.

Q: And the mutagenic call (Test System: E.COLI, Strain/Indicator: WP2UVRA, Metabolic Activation: RAT LIVER S-9, PHENOBARBITAL AND BETA-NAPHTHOFLAVONE, Method: PREINCUBATION)?
A: The mutagenic call was “inactive; negative”.

Q: How did the mutagenic call [3] turn out when `Cc1cncc(C)n1` was run?
A: The mutagenic call was “inactive; negative”.

Q: What about the mutagenic call [1] of the same compound?
A: Its mutagenic call is “active; positive”.

Q: And the mutagenic call [8]?
A: The mutagenic call was “inactive; negative”.

Q: And the mutagenic call [9]?
A: Its mutagenic call is “inactive; negative”.

Q: What about the mutagenic call [4] of the same compound?
A: The mutagenic call was “inactive; negative”.

Q: And the mutagenic call [2]?
A: The mutagenic call was “inactive; negative”.

Q: What about the mutagenic call [10] of the same compound?
A: The mutagenic call was “inactive; negative”.

Q: And the mutagenic call [11]?
A: The mutagenic call was “inactive; negative”.

Q: What about the mutagenic call [5] of the same compound?
A: The mutagenic call was “inactive; negative”.

Q: What about the mutagenic call (Test System: AMES SALMONELLA TYPHIMURIUM, Strain/Indicator: TA102, Metabolic Activation: RAT, LIVER, S-9, AROCLOR 1254, Method: PREINCUBATION) of the same compound?
A: Its mutagenic call is “inactive; negative”.

Q: `CC\C=C/C=C\C=C/C=C\C=C/OCC(C)O` (stereo not drawn) was tested. Which mutagenic call [4] did it give?
A: The mutagenic call was “active; positive”.

Q: How did the mutagenic call (Test System: AMES SALMONELLA TYPHIMURIUM, Strain/Indicator: TA98, Metabolic Activation: HAMSTER, LIVER, S-9, AROCLOR 1254, Method: PREINCUBATION) turn out when `Oc1cc2c(cc1O)[C@@H]1c3ccc(O)c(O)c3OC[C@]1(O)C2` was run?
A: The mutagenic call was “inactive; negative”.

Q: And the mutagenic call [3]?
A: Its mutagenic call is “inactive; negative”.

Q: And the mutagenic call [8]?
A: Its mutagenic call is “inactive; negative”.

Q: And the mutagenic call (Test System: AMES SALMONELLA TYPHIMURIUM, Strain/Indicator: TA100, Metabolic Activation: HAMSTER, LIVER, S-9, AROCLOR 1254, Method: PREINCUBATION)?
A: The mutagenic call was “inactive; negative”.

Q: And the mutagenic call [4]?
A: The mutagenic call was “inactive; negative”.

Q: What about the mutagenic call [10] of the same compound?
A: Its mutagenic call is “inactive; negative”.

Q: What about the mutagenic call (Test System: AMES SALMONELLA TYPHIMURIUM, Strain/Indicator: TA1535, Metabolic Activation: HAMSTER, LIVER, S-9, AROCLOR 1254, Method: PREINCUBATION) of the same compound?
A: The mutagenic call was “inactive; negative”.

Q: And the mutagenic call [6]?
A: The mutagenic call was “inactive; negative”.

Q: And the mutagenic call (Test System: AMES SALMONELLA TYPHIMURIUM, Strain/Indicator: TA1535, Metabolic Activation: RAT, LIVER, S-9, AROCLOR 1254, Method: PREINCUBATION)?
A: The mutagenic call was “inactive; negative”.

Q: What about the mutagenic call (Test System: AMES SALMONELLA TYPHIMURIUM, Strain/Indicator: TA1537, Metabolic Activation: HAMSTER, LIVER, S-9, AROCLOR 1254, Method: PREINCUBATION) of the same compound?
A: The mutagenic call was “inactive; negative”.

Q: And the mutagenic call [7]?
A: Its mutagenic call is “inactive; negative”.

Q: What about the mutagenic call (Test System: AMES SALMONELLA TYPHIMURIUM, Strain/Indicator: TA1537, Metabolic Activation: RAT, LIVER, S-9, AROCLOR 1254, Method: PREINCUBATION) of the same compound?
A: Its mutagenic call is “inactive; negative”.

Q: How did the mutagenic call (Test System: HUMAN H1A1V2 CELLS, Strain/Indicator: TK LOCUS, Metabolic Activation: NONE, Method: SUSPENSION/PLATE) turn out when `c1ccc2c(c1)-c1cccc3c1c-2cc1c2ccccc2ccc31` was run?
A: The mutagenic call was “inactive; negative”.

Q: With `Cc1cc2c(cc1C)C(C)c1ccccc1-2` (stereo not drawn) as the compound, how does the mutagenic call [9] read?
A: The mutagenic call was “active; positive”.

Q: And the mutagenic call [11]?
A: Its mutagenic call is “active; positive”.

Q: `CCOC(=O)c1[nH]c2ccccc2c1N=Cc1cc(OC)c(OC)c(OC)c1` was tested. Which mutagenic call (Test System: AMES SALMONELLA TYPHIMURIUM, Strain/Indicator: TA97, Metabolic Activation: NONE, Method: STANDARD PLATE) did it give?
A: Its mutagenic call is “active; positive”.

Q: What about the mutagenic call (Test System: AMES SALMONELLA TYPHIMURIUM, Strain/Indicator: TA97, Metabolic Activation: RAT, LIVER, S-9, AROCLOR 1254, Method: STANDARD PLATE) of the same compound?
A: Its mutagenic call is “inactive; negative”.

Q: And the mutagenic call [1]?
A: The mutagenic call was “inactive; negative”.

Q: And the mutagenic call [9]?
A: The mutagenic call was “inactive; negative”.

Q: What about the mutagenic call [2] of the same compound?
A: The mutagenic call was “inactive; negative”.

Q: And the mutagenic call [11]?
A: Its mutagenic call is “inactive; negative”.

Q: What about the mutagenic call (Test System: AMES SALMONELLA TYPHIMURIUM, Strain/Indicator: TA102, Metabolic Activation: NONE, Method: STANDARD PLATE) of the same compound?
A: The mutagenic call was “inactive; negative”.

Q: And the mutagenic call (Test System: AMES SALMONELLA TYPHIMURIUM, Strain/Indicator: TA102, Metabolic Activation: RAT, LIVER, S-9, AROCLOR 1254, Method: STANDARD PLATE)?
A: Its mutagenic call is “inactive; negative”.
